Assay results as given in ChEMBL document CHEMBL1201862, “PubChem BioAssay data set” (2004).
The source made the active and inactive calls.

How the values were obtained:
Leucine aminopeptidase = target: T1, Leucine aminopeptidase (Plasmodium falciparum 3D7, UniProt Q8IL11); assay: P. falciparum M17LAP inhibitors, primary screen, biochemical, fluorogenic H-Leu-NHMec substrate, 1536-well (AID 1619); type: functional
T1 sequence (Q8IL11 whole entry): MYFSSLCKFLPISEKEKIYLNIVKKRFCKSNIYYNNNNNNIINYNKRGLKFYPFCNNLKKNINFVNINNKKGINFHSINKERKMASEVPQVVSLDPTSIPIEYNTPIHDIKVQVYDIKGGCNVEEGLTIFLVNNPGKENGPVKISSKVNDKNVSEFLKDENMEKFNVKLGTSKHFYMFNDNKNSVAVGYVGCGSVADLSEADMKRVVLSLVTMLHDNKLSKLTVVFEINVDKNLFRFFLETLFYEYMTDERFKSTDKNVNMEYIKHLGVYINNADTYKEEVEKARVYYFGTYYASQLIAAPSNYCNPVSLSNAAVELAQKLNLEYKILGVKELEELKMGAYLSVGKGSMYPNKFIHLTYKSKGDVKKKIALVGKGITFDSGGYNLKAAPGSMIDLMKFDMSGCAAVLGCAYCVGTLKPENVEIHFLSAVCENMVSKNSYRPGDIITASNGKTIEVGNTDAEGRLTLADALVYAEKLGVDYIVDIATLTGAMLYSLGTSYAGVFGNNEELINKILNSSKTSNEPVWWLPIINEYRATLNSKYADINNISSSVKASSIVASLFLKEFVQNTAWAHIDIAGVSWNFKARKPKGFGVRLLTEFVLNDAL

[1] = target: T2, Short transient receptor potential channel 4 (Mus musculus, UniProt Q9QUQ5); assay: calcium entry via TRPC4 opening agents – cell-based, HEK293 TRPC4/mu-opioid, Fluo-4 calcium, dose response (AID 434937); type: functional
T2 sequence (Q9QUQ5 whole entry): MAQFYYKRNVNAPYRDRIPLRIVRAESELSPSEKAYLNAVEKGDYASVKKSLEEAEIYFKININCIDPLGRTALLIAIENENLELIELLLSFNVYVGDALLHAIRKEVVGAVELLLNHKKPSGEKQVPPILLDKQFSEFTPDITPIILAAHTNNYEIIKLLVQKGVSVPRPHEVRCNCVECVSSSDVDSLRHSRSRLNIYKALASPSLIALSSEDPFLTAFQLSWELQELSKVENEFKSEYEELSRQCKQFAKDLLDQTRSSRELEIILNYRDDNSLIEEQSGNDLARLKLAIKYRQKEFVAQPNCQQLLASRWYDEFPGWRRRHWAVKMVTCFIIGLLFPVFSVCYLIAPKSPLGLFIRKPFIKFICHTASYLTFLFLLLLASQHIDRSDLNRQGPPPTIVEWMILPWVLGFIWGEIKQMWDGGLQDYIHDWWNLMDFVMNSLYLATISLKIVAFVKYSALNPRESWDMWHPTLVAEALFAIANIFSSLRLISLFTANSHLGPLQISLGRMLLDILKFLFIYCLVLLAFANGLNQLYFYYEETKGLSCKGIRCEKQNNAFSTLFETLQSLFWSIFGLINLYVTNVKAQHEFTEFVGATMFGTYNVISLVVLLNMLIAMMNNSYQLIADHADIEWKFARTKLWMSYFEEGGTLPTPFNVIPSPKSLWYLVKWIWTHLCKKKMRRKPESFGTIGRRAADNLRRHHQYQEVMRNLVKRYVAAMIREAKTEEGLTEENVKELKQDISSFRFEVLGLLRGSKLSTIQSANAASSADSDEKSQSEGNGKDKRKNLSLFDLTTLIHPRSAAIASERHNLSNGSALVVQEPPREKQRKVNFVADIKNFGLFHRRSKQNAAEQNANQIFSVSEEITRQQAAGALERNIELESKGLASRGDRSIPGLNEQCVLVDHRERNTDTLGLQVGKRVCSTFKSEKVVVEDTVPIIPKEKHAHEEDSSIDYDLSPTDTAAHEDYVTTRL

[2] = target: T3, Small ubiquitin-related modifier 1 (Homo sapiens, UniProt P63165); assay: SUMO1 protein interaction blockers, potency – biochemical, fluorescence polarization, uHTS hits, dose response (AID 624382); type: functional; details: read-out: IC50_Mean
T3 sequence (P63165 whole entry): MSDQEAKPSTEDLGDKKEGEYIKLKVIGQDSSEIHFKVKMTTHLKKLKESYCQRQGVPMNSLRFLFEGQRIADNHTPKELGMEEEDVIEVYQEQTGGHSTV

[3] = target: T3, Small ubiquitin-related modifier 1; assay: SUMO1 protein-protein binding blockers, potency – biochemical, FRET, dose response (AID 624383); type: functional; details: read-out: IC50_Mean
[4] = viability of PTEN-deleted HCT116 cells – cell-based, HCT116 PTEN knockout, dose response (AID 1047); type: functional;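 note: HCT116 colon tumor cells with PTEN knocked out; cells exposed to compound for 60 hours before readout; potency for loss of cell viability measured by luminescence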
[5] = viability of HCT116 lacking mutant beta-catenin – cell-based, human colon tumor, dose response (AID 1045); type: functional;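 note: HCT116 colon tumor cells with beta catenin knocked out; cells exposed to compound for 60 hours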
Vero = assay: viability of Vero cells under compound – cytotoxicity control for flavivirus capping enzyme inhibitors (AID 588742); type: functional; details: Chlorocebus sabaeus
[6] = target: T4, Long-chain-fatty-acid--AMP ligase FadD28 (Mycobacterium tuberculosis, UniProt P9WQ59); assay: Fluorescence polarization aasay to screen for inhibitors that compete for the binding of FadD28 to a bisubstrate Measured in Biochemical System Using Plate Reader - 2147-01_Inhibitor_Dose_CherryPick_Activity.; type: functional, Mycobacterium tuberculosis H37Rv
T4 sequence (P9WQ59 whole entry): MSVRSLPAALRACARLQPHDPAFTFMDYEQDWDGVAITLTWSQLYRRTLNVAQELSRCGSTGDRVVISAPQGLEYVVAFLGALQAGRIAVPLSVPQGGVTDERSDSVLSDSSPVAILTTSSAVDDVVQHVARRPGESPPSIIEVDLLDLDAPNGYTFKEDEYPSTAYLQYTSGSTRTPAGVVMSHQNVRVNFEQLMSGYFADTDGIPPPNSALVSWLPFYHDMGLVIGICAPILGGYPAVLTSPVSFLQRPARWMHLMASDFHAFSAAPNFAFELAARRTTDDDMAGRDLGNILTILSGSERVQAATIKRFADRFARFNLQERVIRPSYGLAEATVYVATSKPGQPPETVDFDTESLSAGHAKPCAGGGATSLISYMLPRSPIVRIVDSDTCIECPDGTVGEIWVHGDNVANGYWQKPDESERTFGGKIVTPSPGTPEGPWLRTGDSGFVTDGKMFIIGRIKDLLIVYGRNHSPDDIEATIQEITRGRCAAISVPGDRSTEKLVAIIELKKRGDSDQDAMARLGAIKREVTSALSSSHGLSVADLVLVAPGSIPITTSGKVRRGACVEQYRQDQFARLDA

[7] = target: T5, Adenosylmethionine-8-amino-7-oxononanoate aminotransferase (Mycobacterium tuberculosis, UniProt P9WQ81); assay: Mycobacterium tuberculosis BioA enzyme inhibitor Measured in Biochemical System Using Plate Reader - 2163-02_Inhibitor_Dose_CherryPick_Activity.; type: functional, Mycobacterium tuberculosis UT205
T5 sequence (P9WQ81 whole entry): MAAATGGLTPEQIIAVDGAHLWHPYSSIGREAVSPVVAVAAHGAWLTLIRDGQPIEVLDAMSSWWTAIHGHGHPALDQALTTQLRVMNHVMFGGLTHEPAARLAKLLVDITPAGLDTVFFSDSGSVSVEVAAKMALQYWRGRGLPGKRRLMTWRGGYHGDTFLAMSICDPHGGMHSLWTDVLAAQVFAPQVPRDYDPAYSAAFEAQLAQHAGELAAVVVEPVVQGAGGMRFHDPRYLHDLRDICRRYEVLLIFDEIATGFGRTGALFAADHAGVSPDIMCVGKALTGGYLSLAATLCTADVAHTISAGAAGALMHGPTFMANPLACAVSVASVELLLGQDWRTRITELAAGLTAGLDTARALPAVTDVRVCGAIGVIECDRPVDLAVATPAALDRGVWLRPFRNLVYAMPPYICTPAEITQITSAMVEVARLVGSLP

[8] = target: T6, High affinity choline transporter 1 (Homo sapiens, UniProt Q9GZV3); assay: human choline transporter blockers, potency – cell-based, 5-point CRC, membrane potential dye, dose response (AID 504840); type: functional
T6 sequence (Q9GZV3 whole entry): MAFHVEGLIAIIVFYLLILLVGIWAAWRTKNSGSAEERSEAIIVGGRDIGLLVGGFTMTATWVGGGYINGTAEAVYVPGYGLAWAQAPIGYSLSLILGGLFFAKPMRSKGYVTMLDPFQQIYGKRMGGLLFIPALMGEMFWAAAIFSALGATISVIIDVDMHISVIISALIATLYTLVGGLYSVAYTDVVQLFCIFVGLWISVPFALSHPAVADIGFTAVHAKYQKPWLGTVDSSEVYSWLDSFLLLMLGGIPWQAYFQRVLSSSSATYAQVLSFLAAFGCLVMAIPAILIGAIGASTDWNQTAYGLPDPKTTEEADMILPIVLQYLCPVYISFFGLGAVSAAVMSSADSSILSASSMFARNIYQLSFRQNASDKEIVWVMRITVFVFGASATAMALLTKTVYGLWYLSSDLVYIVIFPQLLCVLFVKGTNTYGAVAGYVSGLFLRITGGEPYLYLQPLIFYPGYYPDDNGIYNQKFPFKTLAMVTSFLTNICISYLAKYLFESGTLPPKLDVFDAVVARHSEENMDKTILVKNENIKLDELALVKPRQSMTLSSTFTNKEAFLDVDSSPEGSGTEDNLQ

Genome polyprotein = Genome polyprotein (dengue virus type 2, UniProt P29990); assay: flavivirus cap methylation enzyme inhibition – biochemical, confirmation dose response, primary screen (AID 588689); type: functional
Sequence of Genome polyprotein (P29990 2492-3391 limits assumed): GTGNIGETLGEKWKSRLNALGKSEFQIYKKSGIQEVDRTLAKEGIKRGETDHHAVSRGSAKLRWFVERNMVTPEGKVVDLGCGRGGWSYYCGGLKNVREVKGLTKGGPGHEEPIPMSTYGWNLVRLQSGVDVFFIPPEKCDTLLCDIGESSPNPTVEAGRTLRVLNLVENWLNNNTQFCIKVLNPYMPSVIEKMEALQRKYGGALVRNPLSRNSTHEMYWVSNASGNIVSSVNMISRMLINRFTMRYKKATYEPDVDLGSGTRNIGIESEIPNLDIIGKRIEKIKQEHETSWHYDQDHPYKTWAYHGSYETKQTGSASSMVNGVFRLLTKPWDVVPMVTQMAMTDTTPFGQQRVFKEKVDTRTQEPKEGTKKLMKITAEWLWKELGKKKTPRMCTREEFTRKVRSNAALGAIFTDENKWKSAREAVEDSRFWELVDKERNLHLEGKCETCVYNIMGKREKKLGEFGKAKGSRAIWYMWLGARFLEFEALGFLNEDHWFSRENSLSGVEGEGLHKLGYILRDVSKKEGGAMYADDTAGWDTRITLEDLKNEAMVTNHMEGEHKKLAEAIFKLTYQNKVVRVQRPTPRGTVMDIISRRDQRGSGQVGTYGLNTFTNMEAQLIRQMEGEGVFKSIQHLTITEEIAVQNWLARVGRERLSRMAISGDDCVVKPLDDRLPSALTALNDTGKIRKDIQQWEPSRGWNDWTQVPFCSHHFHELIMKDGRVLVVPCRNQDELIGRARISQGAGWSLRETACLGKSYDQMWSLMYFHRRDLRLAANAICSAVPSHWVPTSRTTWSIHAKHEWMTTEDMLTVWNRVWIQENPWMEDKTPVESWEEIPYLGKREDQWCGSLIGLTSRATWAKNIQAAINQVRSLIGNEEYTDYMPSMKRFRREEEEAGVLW

Fatty acid synthase [9] = target: T7, Fatty acid synthase (Homo sapiens, UniProt P49327); assay: inhibition of human FAS-TE enzyme activity – biochemical, endpoint fluorescence intensity, uHTS hits, dose response (AID 624327); type: functional;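 note: fluorescence from hydrolysis of an O-methyl fluorescein acyl ester substrate by the enzyme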
T7 sequence (P49327 whole entry): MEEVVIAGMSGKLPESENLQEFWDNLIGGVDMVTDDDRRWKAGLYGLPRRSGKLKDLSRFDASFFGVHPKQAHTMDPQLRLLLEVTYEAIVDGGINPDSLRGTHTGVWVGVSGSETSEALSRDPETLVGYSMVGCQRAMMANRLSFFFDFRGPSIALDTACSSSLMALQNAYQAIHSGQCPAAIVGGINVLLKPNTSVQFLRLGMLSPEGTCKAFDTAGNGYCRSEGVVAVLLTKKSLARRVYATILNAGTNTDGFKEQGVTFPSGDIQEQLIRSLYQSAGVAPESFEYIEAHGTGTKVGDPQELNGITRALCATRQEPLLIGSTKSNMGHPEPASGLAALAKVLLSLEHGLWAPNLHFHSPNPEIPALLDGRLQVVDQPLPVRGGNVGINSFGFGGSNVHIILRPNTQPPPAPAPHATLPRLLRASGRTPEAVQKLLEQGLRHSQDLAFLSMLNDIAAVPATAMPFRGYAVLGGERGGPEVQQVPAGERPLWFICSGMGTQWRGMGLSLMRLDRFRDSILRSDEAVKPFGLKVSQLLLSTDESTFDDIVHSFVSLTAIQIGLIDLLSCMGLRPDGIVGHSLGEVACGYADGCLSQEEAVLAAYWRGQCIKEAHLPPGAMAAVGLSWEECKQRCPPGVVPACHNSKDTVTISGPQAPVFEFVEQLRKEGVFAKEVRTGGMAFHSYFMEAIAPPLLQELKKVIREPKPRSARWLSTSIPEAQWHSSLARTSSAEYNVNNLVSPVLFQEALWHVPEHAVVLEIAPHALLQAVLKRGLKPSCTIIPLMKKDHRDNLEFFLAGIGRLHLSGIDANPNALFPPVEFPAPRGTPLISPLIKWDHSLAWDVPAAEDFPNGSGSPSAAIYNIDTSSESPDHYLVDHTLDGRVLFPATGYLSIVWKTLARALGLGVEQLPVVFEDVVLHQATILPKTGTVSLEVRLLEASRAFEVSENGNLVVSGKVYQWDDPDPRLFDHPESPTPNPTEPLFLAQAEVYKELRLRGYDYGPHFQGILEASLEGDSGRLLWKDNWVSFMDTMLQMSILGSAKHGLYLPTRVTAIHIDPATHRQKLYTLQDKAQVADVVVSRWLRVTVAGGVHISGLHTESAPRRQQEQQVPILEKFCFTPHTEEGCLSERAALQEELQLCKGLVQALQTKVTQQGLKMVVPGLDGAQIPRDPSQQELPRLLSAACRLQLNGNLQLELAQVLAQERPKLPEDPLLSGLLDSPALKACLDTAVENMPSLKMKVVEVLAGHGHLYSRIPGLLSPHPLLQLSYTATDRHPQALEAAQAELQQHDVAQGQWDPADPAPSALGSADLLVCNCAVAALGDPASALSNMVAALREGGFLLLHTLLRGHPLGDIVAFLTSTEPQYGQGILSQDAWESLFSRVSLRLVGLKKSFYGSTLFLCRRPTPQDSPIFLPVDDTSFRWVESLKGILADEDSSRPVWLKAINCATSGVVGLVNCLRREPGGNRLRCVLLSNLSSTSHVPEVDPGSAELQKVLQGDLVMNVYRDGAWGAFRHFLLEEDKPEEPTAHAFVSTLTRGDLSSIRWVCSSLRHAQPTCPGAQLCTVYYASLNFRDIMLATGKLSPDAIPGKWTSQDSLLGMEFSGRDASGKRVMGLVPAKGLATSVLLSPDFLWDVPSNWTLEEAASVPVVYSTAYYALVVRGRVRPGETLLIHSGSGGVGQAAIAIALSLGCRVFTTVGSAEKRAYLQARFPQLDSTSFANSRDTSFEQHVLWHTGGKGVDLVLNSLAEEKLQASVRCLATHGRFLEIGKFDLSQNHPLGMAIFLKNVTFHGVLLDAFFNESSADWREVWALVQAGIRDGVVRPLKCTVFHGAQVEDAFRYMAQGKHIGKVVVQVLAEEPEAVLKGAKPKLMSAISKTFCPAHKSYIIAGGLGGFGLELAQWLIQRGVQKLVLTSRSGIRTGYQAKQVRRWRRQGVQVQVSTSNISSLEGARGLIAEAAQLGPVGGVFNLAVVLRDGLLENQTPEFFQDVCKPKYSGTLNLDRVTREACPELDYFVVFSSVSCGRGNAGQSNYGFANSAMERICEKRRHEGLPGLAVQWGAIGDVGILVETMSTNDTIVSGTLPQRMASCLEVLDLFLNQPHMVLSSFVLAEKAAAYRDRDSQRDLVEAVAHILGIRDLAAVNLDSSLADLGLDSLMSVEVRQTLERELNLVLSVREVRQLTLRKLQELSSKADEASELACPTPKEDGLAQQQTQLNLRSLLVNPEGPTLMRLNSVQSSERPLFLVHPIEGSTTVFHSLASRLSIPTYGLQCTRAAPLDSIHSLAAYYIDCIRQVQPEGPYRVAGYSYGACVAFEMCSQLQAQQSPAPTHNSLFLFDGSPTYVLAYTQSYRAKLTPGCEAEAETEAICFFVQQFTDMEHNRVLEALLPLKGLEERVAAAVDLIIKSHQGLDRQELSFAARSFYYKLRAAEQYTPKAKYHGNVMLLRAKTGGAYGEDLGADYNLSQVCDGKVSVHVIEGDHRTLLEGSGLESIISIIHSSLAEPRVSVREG

Fatty acid synthase [10] = target: T7, Fatty acid synthase; assay: inhibition of human FAS-TE enzyme activity – biochemical, kinetic fluorescence intensity, dose response (AID 624326); type: functional;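 note: rate of fluorescence rise from hydrolysis of a fluorogenic O-methyl fluorescein ester substrate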
[11] = NIH-3T3 fibroblast cytotoxicity, dose response, cytotoxicity control, cell-based, fluorescence, Alamar Blue, secondary assay (AID 2327); type: functional;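 note: NIH-3T3 mouse fibroblasts cultured with fluconazole at 8 µg/mL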
[12] = test system: Streptococcus sp. 'group A'; assay: Streptococcus pyogenes SK(-)GAS viability under kanamycin – luminescence, BacTiterGlo, confirmation, counter-screen for streptokinase expression inhibitor project, dose response (AID 1900); type: functional, organism-based
Streptokinase A = target: T8, Streptokinase A (Streptococcus pyogenes serotype M1, UniProt P10520); assay: viability-normalized secreted streptokinase activity reduction – plasminogen activation absorbance, OD405, dose response (AID 1914); type: functional, Streptococcus pyogenes M1 GAS;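 note: secreted streptokinase activity via plasminogen activation per viability signal from cell pellet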
T8 sequence (P10520 whole entry): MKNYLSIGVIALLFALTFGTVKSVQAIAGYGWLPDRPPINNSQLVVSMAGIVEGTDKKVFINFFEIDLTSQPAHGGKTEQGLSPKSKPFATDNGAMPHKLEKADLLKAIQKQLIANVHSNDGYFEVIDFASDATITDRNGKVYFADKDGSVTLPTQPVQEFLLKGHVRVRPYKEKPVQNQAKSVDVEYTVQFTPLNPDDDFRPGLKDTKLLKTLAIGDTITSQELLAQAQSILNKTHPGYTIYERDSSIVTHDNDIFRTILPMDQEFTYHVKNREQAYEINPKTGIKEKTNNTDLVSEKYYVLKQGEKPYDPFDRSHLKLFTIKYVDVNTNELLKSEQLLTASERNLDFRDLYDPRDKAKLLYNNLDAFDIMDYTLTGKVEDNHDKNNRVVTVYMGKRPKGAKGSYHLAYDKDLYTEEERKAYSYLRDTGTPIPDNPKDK

[13] = fluconazole-exposed Candida albicans growth modulators – fluorescence, retest, confirmation (AID 2467); type: functional, cell-based
Streptococcus = assay: GAS UMAA2166 growth inhibition – luminescence, BacTiterGlo, counter-screen for streptokinase expression inhibitor project, dose response (AID 1915); type: functional, organism-based;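 note: potency for reduction of bacterial viability or growth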
Albumin = Albumin (Bos taurus, UniProt P02769); assay: Counterscreen for inhibitors of T-cell receptor (TCR)-CD3 interaction: Fluorescence-based biochemical high throughput dose response assay to identify inhibitors of T-cell receptor (TCR)-CD3 interaction using a TAMRA-labeled BSA probe.; type: functional
Sequence of Albumin (P02769 whole entry): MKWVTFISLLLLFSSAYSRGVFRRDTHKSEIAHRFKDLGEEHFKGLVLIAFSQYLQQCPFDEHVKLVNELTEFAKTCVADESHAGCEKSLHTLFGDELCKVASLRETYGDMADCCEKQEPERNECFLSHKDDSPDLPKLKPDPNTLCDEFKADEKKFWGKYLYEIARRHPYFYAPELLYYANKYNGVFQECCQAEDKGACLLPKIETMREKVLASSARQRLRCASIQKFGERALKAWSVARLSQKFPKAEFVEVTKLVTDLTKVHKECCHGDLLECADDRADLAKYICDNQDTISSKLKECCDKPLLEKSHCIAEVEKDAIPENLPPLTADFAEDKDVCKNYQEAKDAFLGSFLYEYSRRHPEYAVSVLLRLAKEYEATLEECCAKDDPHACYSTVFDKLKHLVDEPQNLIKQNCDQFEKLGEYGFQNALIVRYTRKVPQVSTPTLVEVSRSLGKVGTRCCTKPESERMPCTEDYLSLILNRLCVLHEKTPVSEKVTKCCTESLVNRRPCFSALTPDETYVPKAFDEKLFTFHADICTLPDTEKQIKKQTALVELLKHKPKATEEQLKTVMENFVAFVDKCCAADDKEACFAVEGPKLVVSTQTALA

Cc1onc(-c2ccccc2)c1C(=O)NNC(=S)NC(=O)c1ccc(F)cc1
IC50 (Leucine aminopeptidase): 79.4 µM (active)
EC50 [1]: 5.96 µM (active)
IC50 [2]: > 66.6 µM (inactive)
IC50 [3]: 100 µM (inactive)

CC(=O)Nc1ccc(S(=O)(=O)NCCSCc2c(Cl)cccc2Cl)cc1
EC50 [4]: 61.4 µM (active)
EC50 [5]: 149 µM (active)
CC50 (Vero): > 40 µM (active)

CC(=O)c1cccc(NC(=O)NC2CCCCCCC2)c1
AC50 [6]: > 100 µM (inactive)

O=C(O)CCS(=O)(=O)c1nc(-c2cccs2)cc(C(F)(F)F)n1
AC50 [7]: 15.6 µM (active)

CCCn1nc(NS(=O)(=O)c2cccc3nonc23)c2cc3cccc(C)c3nc21
IC50 [8]: 3.54 µM (active)
IC50 (Genome polyprotein): 39.8 µM (active)
AC50 [6]: > 100 µM (inactive)

CCOCCCNC(=O)CSc1nc2nc(C)c(Cc3ccccc3)c(C)n2n1
AC50 [7]: 2.18 µM (active)

O=C(CC(C(=O)O)c1ccc(Cl)cc1)c1ccc(Cl)c(Cl)c1 (stereo not given)
IC50 (Fatty acid synthase [9]): 2.11 µM (active)
IC50 (Fatty acid synthase [10]): 4.21 µM (active)

CCc1ccc(/C=C2\SC(=S)N(CCCC(=O)Nc3ccccc3C(=O)O)C2=O)cc1
EC50 [11]: 6.89 µM (inconclusive)
EC50 [12]: 1.9 µM (active)
EC50 (Streptokinase A): > 50 µM (not active)
EC50 [13]: 2.37 µM (active)
EC50 (Streptococcus): 133 µM (active)
CC50 (Vero): > 40 µM (active)
IC50 (Genome polyprotein): 30.8 µM (active)

C=CCn1c(SCc2cc([N+](=O)[O-])cc3c2OCOC3)nc2cc(C(=O)O)ccc2c1=O
IC50 (Fatty acid synthase [9]): 2.57 µM (active)
IC50 (Fatty acid synthase [10]): 1.6 µM (active)

CSc1ncc(Cl)c(C(=O)Nc2nnc(SC/C=C/c3ccccc3)s2)n1
AC50 [6]: > 100 µM (inactive)

COc1ccc(C(=O)NC(CC(=O)O)c2cc([N+](=O)[O-])ccc2Cl)c(SC)c1 (stereo not given)
IC50 (Fatty acid synthase [9]): 7.33 µM (active)
IC50 (Fatty acid synthase [10]): 8.79 µM (active)

C=CCNC(=O)/C(=C\c1ccc(OC)cc1)NC(=O)c1ccc([N+](=O)[O-])cc1
IC50 (Fatty acid synthase [9]): 2.93 µM (active)
IC50 (Fatty acid synthase [10]): 2.21 µM (active)

Nn1c(SCCOc2ccccc2)nnc1-c1cccnc1
AC50 [7]: 1.33 µM (active)

O=C(O)CCc1ccc(-c2ccc(Cl)cc2)n1Cc1ccco1
AC50 [6]: 21.8 µM (active)

Cc1cc(NC(=O)CN(C)S(=O)(=O)c2c[nH]cn2)ccc1Br
AC50 [7]: 19 µM (active)

Cc1cccc(C(=O)NNC(=O)c2ccc(NS(=O)(=O)c3cccs3)cc2)c1C
AC50 [6]: 43.8 µM (active)

CCC(=O)N1CC[C@@H]2[C@@H](CO)N(C)c3ccc(-c4cccc(F)c4)cc3[C@@H]21
AC50 [7]: 0.184 µM (active)

C=CCNC(=S)NNC(=O)c1cccn(Cc2cccc(Cl)c2)c1=O
IC50 (Albumin): > 94.1 µM (inactive)
